In ChEMBL document CHEMBL1649134, “Occurrence of efflux mechanism and cephalosporinase variant in a population of Enterobacter aerogenes and Klebsiella pneumoniae isolates producing extended-spectrum beta-lactamases” (2009):
Values after ≈ are worked out from the molar mass of the structure shown.

Legend:
Format in all cases: functional
Klebsiella aerogenes [1] = test: Antimicrobial activity against multidrug resistant Enterobacter aerogenes isolate 18 by broth dilution method
Klebsiella aerogenes [2] = test: Antimicrobial activity against multidrug resistant Enterobacter aerogenes ATCC 15038 by broth dilution method
Klebsiella aerogenes [3] = test: Antimicrobial activity against multidrug resistant Enterobacter aerogenes isolate 8 by broth dilution method
Klebsiella aerogenes [4] = test: Antimicrobial activity against multidrug resistant Enterobacter aerogenes isolate 19 by broth dilution method
Klebsiella aerogenes [5] = test: Antimicrobial activity against multidrug resistant Enterobacter aerogenes isolate 15 by broth dilution method
Klebsiella aerogenes [6] = test: Antimicrobial activity against multidrug resistant Enterobacter aerogenes isolate 3 by broth dilution method
Klebsiella pneumoniae [7] = test: Antimicrobial activity against multidrug resistant Klebsiella pneumoniae isolate 16 by broth dilution method
Klebsiella aerogenes [8] = test: Antimicrobial activity against multidrug resistant Enterobacter aerogenes isolate 5 by broth dilution method
Klebsiella pneumoniae [9] = test: Antimicrobial activity against multidrug resistant Klebsiella pneumoniae isolate 12 by broth dilution method
Klebsiella aerogenes [10] = test: Antimicrobial activity against multidrug resistant Enterobacter aerogenes isolate 2 by broth dilution method
Klebsiella aerogenes [11] = test: Antimicrobial activity against multidrug resistant Enterobacter aerogenes isolate 1 by broth dilution method
Klebsiella pneumoniae [12] = test: Antimicrobial activity against multidrug resistant Klebsiella pneumoniae isolate 10 by broth dilution method
Klebsiella aerogenes [13] = test: Antimicrobial activity against multidrug resistant Enterobacter aerogenes isolate 23 by broth dilution method
Klebsiella aerogenes [14] = test: Antimicrobial activity against multidrug resistant Enterobacter aerogenes isolate 6 by broth dilution method
Klebsiella aerogenes [15] = test: Antimicrobial activity against multidrug resistant Enterobacter aerogenes isolate 20 by broth dilution method
Klebsiella pneumoniae [16] = test: Antimicrobial activity against multidrug resistant Klebsiella pneumoniae isolate 3 by broth dilution method
Klebsiella aerogenes [17] = test: Antimicrobial activity against multidrug resistant Enterobacter aerogenes isolate 24 by broth dilution method
Klebsiella pneumoniae [18] = test: Antimicrobial activity against multidrug resistant Klebsiella pneumoniae isolate 8 by broth dilution method
Klebsiella pneumoniae [19] = test: Antimicrobial activity against multidrug resistant Klebsiella pneumoniae isolate 1 by broth dilution method
Klebsiella pneumoniae [20] = test: Antimicrobial activity against multidrug resistant Klebsiella pneumoniae isolate 6 by broth dilution method
Klebsiella aerogenes [21] = test: Antimicrobial activity against multidrug resistant Enterobacter aerogenes isolate 10 by broth dilution method
Klebsiella pneumoniae [22] = test: Antimicrobial activity against multidrug resistant Klebsiella pneumoniae isolate 15 by broth dilution method
Klebsiella aerogenes [23] = test: Antimicrobial activity against multidrug resistant Enterobacter aerogenes isolate 26 by broth dilution method
Klebsiella pneumoniae [24] = test: Antimicrobial activity against multidrug resistant Klebsiella pneumoniae isolate 2 by broth dilution method
Klebsiella aerogenes [25] = test: Antimicrobial activity against multidrug resistant Enterobacter aerogenes isolate 4 by broth dilution method
Klebsiella aerogenes [26] = test: Antimicrobial activity against multidrug resistant Enterobacter aerogenes isolate 22 by broth dilution method
Klebsiella aerogenes [27] = test: Antimicrobial activity against multidrug resistant Enterobacter aerogenes isolate 27 by broth dilution method
Klebsiella aerogenes [28] = test: Antimicrobial activity against multidrug resistant Enterobacter aerogenes isolate 11 by broth dilution method
Klebsiella aerogenes [29] = test: Antimicrobial activity against multidrug resistant Enterobacter aerogenes isolate 14 by broth dilution method
Klebsiella aerogenes [30] = test: Antimicrobial activity against multidrug resistant Enterobacter aerogenes isolate 25 by broth dilution method
Klebsiella pneumoniae [31] = test: Antimicrobial activity against multidrug resistant Klebsiella pneumoniae isolate 4 by broth dilution method
Klebsiella pneumoniae [32] = test: Antimicrobial activity against multidrug resistant Klebsiella pneumoniae isolate 14 by broth dilution method
Klebsiella aerogenes [33] = test: Antimicrobial activity against multidrug resistant Enterobacter aerogenes isolate 13 by broth dilution method
Klebsiella aerogenes [34] = test: Antimicrobial activity against multidrug resistant Enterobacter aerogenes isolate 9 by broth dilution method
Klebsiella aerogenes [35] = test: Antimicrobial activity against multidrug resistant Enterobacter aerogenes isolate 21 by broth dilution method
Klebsiella pneumoniae [36] = test: Antimicrobial activity against multidrug resistant Klebsiella pneumoniae isolate 5 by broth dilution method
Klebsiella pneumoniae [37] = test: Antimicrobial activity against multidrug resistant Klebsiella pneumoniae isolate 11 by broth dilution method
Klebsiella aerogenes [38] = test: Antimicrobial activity against multidrug resistant Enterobacter aerogenes isolate 16 by broth dilution method
Klebsiella aerogenes [39] = test: Antimicrobial activity against multidrug resistant Enterobacter aerogenes isolate 17 by broth dilution method
Klebsiella pneumoniae [40] = test: Antimicrobial activity against multidrug resistant Klebsiella pneumoniae isolate 9 by broth dilution method
Klebsiella pneumoniae [41] = test: Antimicrobial activity against multidrug resistant Klebsiella pneumoniae ATCC 11296 by broth dilution method
Klebsiella aerogenes [42] = test: Antimicrobial activity against multidrug resistant Enterobacter aerogenes isolate 12 by broth dilution method
Klebsiella aerogenes [43] = test: Antimicrobial activity against multidrug resistant Enterobacter aerogenes isolate 7 by broth dilution method
Klebsiella pneumoniae [44] = test: Antimicrobial activity against multidrug resistant Klebsiella pneumoniae isolate 13 by broth dilution method
Klebsiella pneumoniae [45] = test: Antimicrobial activity against multidrug resistant Klebsiella pneumoniae isolate 7 by broth dilution method

With `CO[C@@]1(NC(=O)Cc2cccs2)C(=O)N2C(C(=O)O)=C(COC(N)=O)CS[C@@H]21` [CEFOXITIN] the MIC (Klebsiella aerogenes [1]) was over 1020 µg/mL, the MIC (Klebsiella aerogenes [2]) was 128 µg/mL (≈ 299 µM) and the MIC (Klebsiella aerogenes [3]) was 1020 µg/mL (≈ 2400 µM). The MIC (Klebsiella aerogenes [4]) was over 1020 µg/mL, the MIC (Klebsiella aerogenes [5]) was over 1020 µg/mL and the MIC (Klebsiella aerogenes [6]) was over 1020 µg/mL. For the same compound, the MIC (Klebsiella pneumoniae [7]) was 32 µg/mL (≈ 74.9 µM), the MIC (Klebsiella aerogenes [8]) was over 1020 µg/mL and the MIC (Klebsiella pneumoniae [9]) was 64 µg/mL (≈ 150 µM). It also gave an MIC (Klebsiella aerogenes [10]) of over 1020 µg/mL, an MIC (Klebsiella aerogenes [11]) of over 1020 µg/mL and an MIC (Klebsiella pneumoniae [12]) of 32 µg/mL (≈ 74.9 µM). The MIC (Klebsiella aerogenes [13]) was 256 µg/mL (≈ 599 µM), the MIC (Klebsiella aerogenes [14]) was over 1020 µg/mL and the MIC (Klebsiella aerogenes [15]) was over 1020 µg/mL. It also gave an MIC (Klebsiella pneumoniae [16]) of 32 µg/mL (≈ 74.9 µM), an MIC (Klebsiella aerogenes [17]) of over 1020 µg/mL and an MIC (Klebsiella pneumoniae [18]) of 8 µg/mL (≈ 18.7 µM). For the same compound, the MIC (Klebsiella pneumoniae [19]) was 16 µg/mL (≈ 37.4 µM), the MIC (Klebsiella pneumoniae [20]) was 16 µg/mL (≈ 37.4 µM) and the MIC (Klebsiella aerogenes [21]) was over 1020 µg/mL. For the same compound, the MIC (Klebsiella pneumoniae [22]) was 64 µg/mL (≈ 150 µM), the MIC (Klebsiella aerogenes [23]) was 1020 µg/mL (≈ 2400 µM) and the MIC (Klebsiella pneumoniae [24]) was 16 µg/mL (≈ 37.4 µM). For the same compound, the MIC (Klebsiella aerogenes [25]) was over 1020 µg/mL, the MIC (Klebsiella aerogenes [26]) was over 1020 µg/mL and the MIC (Klebsiella aerogenes [27]) was over 1020 µg/mL. For the same compound, the MIC (Klebsiella aerogenes [28]) was 512 µg/mL (≈ 1200 µM), the MIC (Klebsiella aerogenes [29]) was over 1020 µg/mL and the MIC (Klebsiella aerogenes [30]) was over 1020 µg/mL. The MIC (Klebsiella pneumoniae [31]) was 32 µg/mL (≈ 74.9 µM), the MIC (Klebsiella pneumoniae [32]) was 64 µg/mL (≈ 150 µM) and the MIC (Klebsiella aerogenes [33]) was over 1020 µg/mL. It also gave an MIC (Klebsiella aerogenes [34]) of over 1020 µg/mL, an MIC (Klebsiella aerogenes [35]) of over 1020 µg/mL and an MIC (Klebsiella pneumoniae [36]) of 16 µg/mL (≈ 37.4 µM). The MIC (Klebsiella pneumoniae [37]) was 32 µg/mL (≈ 74.9 µM), the MIC (Klebsiella aerogenes [38]) was over 1020 µg/mL and the MIC (Klebsiella aerogenes [39]) was over 1020 µg/mL. The MIC (Klebsiella pneumoniae [40]) was 16 µg/mL (≈ 37.4 µM), the MIC (Klebsiella pneumoniae [41]) was 8 µg/mL (≈ 18.7 µM) and the MIC (Klebsiella aerogenes [42]) was over 1020 µg/mL. For the same compound, the MIC (Klebsiella aerogenes [43]) was over 1020 µg/mL, the MIC (Klebsiella pneumoniae [44]) was 32 µg/mL (≈ 74.9 µM) and the MIC (Klebsiella pneumoniae [45]) was 16 µg/mL (≈ 37.4 µM).
